Key:
MBP-PdeA = target: T1, MBP-PdeA (Lactobacillus acidophilus, UniProt Q5FJ85); assay: PDE assay, reversed-phase HPLC; assay type: biochemical; conditions: 10 μM enzyme, 100 μM c-di-GMP, 5 mM MgCl2, 50 mM Tris-HCl pH 9.35, 37 °C
T1 construct: gene LBA1414; pdeA (EAL domain only protein), MBP fusion in pMAL-c2, expressed in E. coli BL21, amylose column; MBP kept
T1 sequence (Q5FJ85 1-231): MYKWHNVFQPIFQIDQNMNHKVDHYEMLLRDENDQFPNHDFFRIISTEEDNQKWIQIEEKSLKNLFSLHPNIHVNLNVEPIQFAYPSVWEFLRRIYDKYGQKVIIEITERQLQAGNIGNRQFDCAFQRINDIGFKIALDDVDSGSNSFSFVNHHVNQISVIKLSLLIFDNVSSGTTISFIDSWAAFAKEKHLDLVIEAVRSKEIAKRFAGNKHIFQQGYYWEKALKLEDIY

[1] = target: T2, MBP-EALpdeB (EAL domain of PdeB) (Lactobacillus acidophilus, UniProt Q5FJ84); assay: equilibrium dialysis with HPLC quantification; assay type: binding
T2 construct: gene LBA1415; EAL domain (residues 32-267, ELLLR motif, no N-terminal membrane targeting signal), MBP fusion in pMAL-c2, expressed in E. coli BL21, amylose column; MBP kept
T2 sequence (Q5FJ84 32-267): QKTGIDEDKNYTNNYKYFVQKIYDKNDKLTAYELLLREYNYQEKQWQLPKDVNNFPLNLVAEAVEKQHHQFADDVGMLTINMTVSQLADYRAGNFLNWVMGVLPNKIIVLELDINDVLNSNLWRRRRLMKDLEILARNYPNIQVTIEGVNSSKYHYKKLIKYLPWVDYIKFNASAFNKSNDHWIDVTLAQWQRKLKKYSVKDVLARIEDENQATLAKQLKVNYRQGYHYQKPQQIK

Row | Compound | PDE assay, reversed-phase HPLC (MBP-PdeA) | Kd [1]
1 | Nc1nc2c(ncn2[C@@H]2O[C@@H]3COP(=O)(O)O[C@H]4[C@@H](O)[C@H](n5cnc6c(=O)[nH]c(N)nc65)O[C@@H]4COP(=O)(O)O[C@H]3[C@H]2O)c(=O)[nH]1 [c-di-GMP] | PdeA was able to hydrolyze c-di-GMP to pGpG | 4.87 ± 0.89 µM
2 | Nc1nc2c(ncn2[C@@H]2O[C@H](COP(=O)(O)O[C@H]3[C@@H](O)[C@H](n4cnc5c(=O)[nH]c(N)nc54)O[C@@H]3COP(=O)(O)O)[C@@H](O)[C@H]2O)c(=O)[nH]1 [pGpG] | The PdeA enzymatic reaction product corresponded to the retention time of the pGpG | –

Reference: article PMC6123363, “Functional Characterization of c-di-GMP Signaling-Related Genes in the Probiotic Lactobacillus acidophilus” (Frontiers in Microbiology, 2018)
